Data from paper PMC5478271, “Chemical structure-guided design of dynapyrazoles, cell-permeable dynein inhibitors with a unique mode of action” (eLife, 2017).

How the values were obtained:
[1] = system: Gli-driven luciferase reporter in NIH-3T3 (Shh-Light2) cells; assay: Hedgehog pathway activity, Gli-driven luciferase reporter (Shh-Light2 cells, SAG-stimulated); assay type: cell-based; details: for Concentration at which cell death was observed: 28 hr time course, ~10-fold above the IC50; for IC50: Shh Light2, SAG 500 nM, low serum (0.5% BCS), 28–32 hr, read-out: IC50, inhibition of Gli-driven luciferase reporter expression
Text: We next examined the inhibition of dynein 2 by dynapyrazole-A in cell-based assays. In cell culture, serum starvation results in the formation of primary cilia, which are required for Hedgehog signaling ([Goetz and Anderson, 2010]). Quiescent cells respond to the Hedgehog ligand or to a synthetic agonist and pathway activity can be measured using a Gli-driven luciferase reporter ([Taipale et al., 2000]; [Chen et al., 2002]). Expression of Hedgehog-driven luciferase reporter was inhibited by dynapyrazole-A (Compound 8, IC50: 1.9 ± 0.6 µM) ~8 fold more potently than ciliobrevin D (IC50: 15.5 ± 3 µM, Figure 3I). […] In this assay, we have also observed cell death at high ciliobrevin D concentrations (200 µM,~10x above its IC50). To stimulate Hedgehog pathway activity, we used the synthetic agonist of smoothened (SAG) ([Chen et al., 2002]), which competes with many known Hedgehog pathway inhibitors for binding to Smoothened, a key protein in this signaling pathway ([Sharpe et al., 2015]). As dynapyrazole-A inhibits Hedgehog signaling at high SAG concentrations (500 nM), it is likely to act downstream of Smoothened, as was previously noted for ciliobrevins and consistent with inhibition of dynein 2 ([Hyman et al., 2009]; [Firestone et al., 2012]).
NIH-3T3 cells stably expressing a luciferase reporter downstream of a Gli binding site (Shh-Light2 cells, RRID: CVCL_2721) were maintained in DMEM with 10% bovine calf serum (BCS). Cells were seeded at a density of 30,000 cells/well in 96-well tissue culture-treated plates (Corning, cat #353072) in 100 μL in DMEM +10% BCS, and incubated for 48 hr ([Taipale et al., 2000]). Wells were washed briefly with PBS. Next 100 μL of low serum media (DMEM +0.5% BCS) containing smoothened agonist (SAG, 500nM), and either solvent control (0.2% DMSO) or test compound (serial threefold dilutions of each inhibitor starting from 20 μM) were added to the wells. After 28–32 hr of inhibitor treatment, cells were washed with 50 μL PBS and lysed for >30 min in 30 μL Passive Lysis Buffer (Promega Dual Luciferase kit, cat E1910). 5 μL of each lysate was transferred to white, solid-bottom 96-well plates (Greiner, cat #655075), followed by rapid addition (within 30 s) of 30 μL of Luciferase Assay Reagent using a multichannel pipette. Luminescence for each condition was read using a Synergy Neo plate reader (5 s integration time per well). Cell line identity was confirmed by measurement of the degree of response to Hedgehog pathway stimulation by the synthetic agonist SAG and using previously-published values from our groups and others as references ([Firestone et al., 2012]; [Hyman et al., 2009]).
Curve fitting: Where dose-response experiments are fit and IC50values given, these are obtained as follows: Individual experiments are treated as separate. The data are fit to a sigmoidal dose-response curve of the form (Y=Bottom + (Top-Bottom)/(1 + 10^((LogIC50-X)*HillSlope)). All variables were allowed to float freely with the exception of the variable denoted ‘bottom’, which was constrained to be >0. The separate IC50 values obtained from fits to each individual experiment's dataset were averaged together and presented as a mean with range (Figure 3G and H) or standard deviation (Figures 3I, 5D, 6E and K).

[2] = target: T1, His-dynein 1 (Homo sapiens, UniProt Q14204); assay: Microtubule-stimulated ATPase activity of His-dynein 1; assay type: biochemical; details: 1 mM MgATP
T1 construct: (wild-type, K1912A, K2601A, AA 1320–4646, uniprot: Q14204); made in house; host or cells: Sf9 insect cells (baculovirus)
Procedure: ATPase assays using recombinant Dynein 1 (wild-type and mutants) were performed in a buffer containing 25 mM PIPES pH7.0, 30 mM KCl, 1 mM EGTA, 5 mM MgCl2, 0.01% triton X-100, 1 mM DTT, and 20–30 µM taxol (if microtubules were present). For typical conditions, enzyme was incubated with varying concentrations of inhibitor in buffer containing 2% DMSO for 10 min in a volume of 10 μL. When microtubules were present, they were polymerized by stepwise addition of taxol and high concentrations of DMSO (30% final during polymerization reactions), and re-suspended following centrifugation in ATPase buffer to a concentration up to threefold above the final concentration used in the reaction (bovine brain tubulin, no fluoresecent label). For microtubule-stimulated reactions in dose-response format, reactions were assembled by 1:1:1 mixture of 3x enzyme stock, 3x compound stock (in buffer with 6% DMSO), and 3x microtubule stock to each well. For microtubule-stimulated ATPase assays at tubulin concentrations > 2.5 µM, enzyme stock was supplemented with compound stock in pure DMSO (resulting in an intermediate DMSO concentration of 6%), and then the microtubule stock was added. Final enzyme concentrations were 30–100 nM for GFP-dynein 1, wild-type 6x-His-dynein 1, and K2601A 6x-His-dynein 1 and up to 500 nM for K1912A 6x-His-dynein 1. The final DMSO concentration was 2% in all ATPase assays performed.
Assembled reaction mixtures (including enzyme, compound, and microtubules, if present) were incubated for 10 min before addition of ATP. Each ATPase reaction was initiated by addition of 2 μL of a 6x ATP stock containing trace γ-^32P ATP (3 µCi/mmol, 3 µCi/mL, Perkin Elmer) and allowed to proceed for a time predetermined to lie within the linear range of the assay (20–30 min). For typical conditions, ATP was used at a final concentration of 1 mM. Reactions were quenched by the addition of 12 µL 100 mM EDTA, and 2 μL of each quenched reaction was spotted onto PEI-cellulose TLC plates (Millipore). Plates were developed in a glass chamber with a freshly prepared solution of 150 mM formic acid and 150 mM LiCl, dried, exposed to a storage phosphor tray (GE Healthsciences), and scanned on a Typhoon imaging system (GE Healthsciences). The fraction of γ-phosphate hydrolyzed in each condition was quantified using FIJI.
Curve fitting: Where dose-response experiments are fit and IC50values given, these are obtained as follows: Individual experiments are treated as separate. […]

T1 sequence (Q14204 1320-4646): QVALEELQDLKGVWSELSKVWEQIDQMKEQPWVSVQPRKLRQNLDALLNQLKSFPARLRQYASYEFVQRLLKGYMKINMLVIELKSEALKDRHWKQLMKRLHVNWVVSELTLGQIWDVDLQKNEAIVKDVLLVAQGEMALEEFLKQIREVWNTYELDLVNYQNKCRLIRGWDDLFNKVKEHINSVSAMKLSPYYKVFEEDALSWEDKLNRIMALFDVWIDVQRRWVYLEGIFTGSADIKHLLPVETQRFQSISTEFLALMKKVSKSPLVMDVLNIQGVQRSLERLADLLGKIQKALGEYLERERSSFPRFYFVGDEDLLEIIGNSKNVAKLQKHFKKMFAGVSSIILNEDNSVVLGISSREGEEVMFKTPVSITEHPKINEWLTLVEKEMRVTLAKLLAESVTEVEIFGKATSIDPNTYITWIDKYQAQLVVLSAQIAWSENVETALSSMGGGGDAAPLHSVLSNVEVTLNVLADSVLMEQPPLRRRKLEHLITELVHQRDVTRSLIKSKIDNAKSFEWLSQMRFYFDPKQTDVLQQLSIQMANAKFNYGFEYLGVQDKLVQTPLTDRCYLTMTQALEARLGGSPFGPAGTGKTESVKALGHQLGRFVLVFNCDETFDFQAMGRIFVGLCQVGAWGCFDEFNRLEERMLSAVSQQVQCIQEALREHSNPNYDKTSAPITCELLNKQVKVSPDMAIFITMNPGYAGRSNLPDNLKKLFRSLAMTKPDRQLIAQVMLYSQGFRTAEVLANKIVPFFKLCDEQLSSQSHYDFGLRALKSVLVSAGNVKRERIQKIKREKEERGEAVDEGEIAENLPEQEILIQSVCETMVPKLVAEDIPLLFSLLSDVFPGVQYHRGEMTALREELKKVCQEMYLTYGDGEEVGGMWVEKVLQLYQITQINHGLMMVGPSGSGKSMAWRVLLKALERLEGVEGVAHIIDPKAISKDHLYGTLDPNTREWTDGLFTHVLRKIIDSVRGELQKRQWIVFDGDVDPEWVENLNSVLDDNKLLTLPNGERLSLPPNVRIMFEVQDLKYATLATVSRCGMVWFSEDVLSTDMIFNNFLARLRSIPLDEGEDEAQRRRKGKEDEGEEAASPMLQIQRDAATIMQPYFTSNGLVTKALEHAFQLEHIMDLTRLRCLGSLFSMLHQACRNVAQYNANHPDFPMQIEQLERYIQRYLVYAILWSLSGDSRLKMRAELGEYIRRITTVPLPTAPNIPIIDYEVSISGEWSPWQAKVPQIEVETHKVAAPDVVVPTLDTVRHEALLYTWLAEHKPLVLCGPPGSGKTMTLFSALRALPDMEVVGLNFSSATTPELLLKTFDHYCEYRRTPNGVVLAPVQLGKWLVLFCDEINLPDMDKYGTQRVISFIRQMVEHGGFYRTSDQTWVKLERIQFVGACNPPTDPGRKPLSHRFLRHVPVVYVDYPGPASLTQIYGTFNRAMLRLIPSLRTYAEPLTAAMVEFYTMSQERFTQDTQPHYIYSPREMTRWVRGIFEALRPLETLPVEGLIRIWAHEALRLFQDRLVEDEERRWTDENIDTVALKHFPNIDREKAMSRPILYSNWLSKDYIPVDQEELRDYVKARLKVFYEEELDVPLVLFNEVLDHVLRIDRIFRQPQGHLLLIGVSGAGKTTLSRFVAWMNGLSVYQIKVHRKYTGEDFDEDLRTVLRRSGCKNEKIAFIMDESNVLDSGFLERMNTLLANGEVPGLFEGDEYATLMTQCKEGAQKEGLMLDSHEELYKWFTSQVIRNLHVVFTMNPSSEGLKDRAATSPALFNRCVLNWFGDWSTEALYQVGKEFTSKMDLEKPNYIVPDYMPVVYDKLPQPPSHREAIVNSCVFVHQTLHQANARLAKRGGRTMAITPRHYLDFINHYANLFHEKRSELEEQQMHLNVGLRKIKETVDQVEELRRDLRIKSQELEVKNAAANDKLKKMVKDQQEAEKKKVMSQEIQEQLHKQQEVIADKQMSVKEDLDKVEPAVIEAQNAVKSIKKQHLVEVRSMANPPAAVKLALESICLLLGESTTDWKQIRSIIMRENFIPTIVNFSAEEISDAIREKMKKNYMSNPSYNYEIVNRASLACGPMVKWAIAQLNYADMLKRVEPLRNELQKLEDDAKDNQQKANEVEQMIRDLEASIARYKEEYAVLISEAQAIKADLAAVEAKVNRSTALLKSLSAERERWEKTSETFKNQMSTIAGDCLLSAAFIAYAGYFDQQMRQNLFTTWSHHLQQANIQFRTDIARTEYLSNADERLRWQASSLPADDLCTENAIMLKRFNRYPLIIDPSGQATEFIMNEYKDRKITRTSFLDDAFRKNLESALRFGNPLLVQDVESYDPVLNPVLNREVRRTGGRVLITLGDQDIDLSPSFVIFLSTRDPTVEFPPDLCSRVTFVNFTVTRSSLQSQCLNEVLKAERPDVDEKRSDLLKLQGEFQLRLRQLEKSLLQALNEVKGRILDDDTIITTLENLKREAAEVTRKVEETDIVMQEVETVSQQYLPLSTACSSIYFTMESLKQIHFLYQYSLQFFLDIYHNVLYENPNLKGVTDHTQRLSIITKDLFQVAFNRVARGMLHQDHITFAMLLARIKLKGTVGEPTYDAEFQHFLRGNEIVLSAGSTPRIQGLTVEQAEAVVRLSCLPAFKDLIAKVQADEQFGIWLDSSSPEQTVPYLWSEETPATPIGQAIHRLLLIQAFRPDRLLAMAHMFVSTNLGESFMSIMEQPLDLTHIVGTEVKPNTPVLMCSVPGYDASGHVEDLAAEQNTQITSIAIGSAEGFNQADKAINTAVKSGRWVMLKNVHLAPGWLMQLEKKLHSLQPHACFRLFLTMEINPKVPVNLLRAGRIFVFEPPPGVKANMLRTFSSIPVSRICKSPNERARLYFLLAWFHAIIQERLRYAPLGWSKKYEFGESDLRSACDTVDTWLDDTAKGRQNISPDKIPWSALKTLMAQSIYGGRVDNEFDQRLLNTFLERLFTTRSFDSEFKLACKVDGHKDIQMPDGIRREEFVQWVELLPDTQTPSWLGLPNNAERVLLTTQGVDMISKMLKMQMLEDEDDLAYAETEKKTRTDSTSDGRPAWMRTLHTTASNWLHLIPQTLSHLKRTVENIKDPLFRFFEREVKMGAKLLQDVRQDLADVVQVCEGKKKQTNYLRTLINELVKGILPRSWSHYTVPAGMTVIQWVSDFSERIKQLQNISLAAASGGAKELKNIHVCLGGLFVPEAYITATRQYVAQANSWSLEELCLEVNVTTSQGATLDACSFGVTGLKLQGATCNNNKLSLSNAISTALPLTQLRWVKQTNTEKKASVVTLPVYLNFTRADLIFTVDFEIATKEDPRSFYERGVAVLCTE

Structure (SMILES)	Concentration at which cell death was observed [1] [µM]	IC50 [1] [µM]	Plateau of microtubule-stimulated ATPase activity at increasing compound concentrations ([2]; 2.5 µM microtubules)	Potency relative to ciliobrevin D, Hedgehog-driven luciferase reporter ([1]; more potent than ciliobrevin D)	IC50 ([2]; 2.5 µM microtubules, fit to non-zero plateau, read-out: IC50, inhibition of microtubule-stimulated His-dynein 1 ATPase activity) [µM]	Residual rate of microtubule-stimulated ATPase activity ([2]; 30 µM compound, 8 or 15 µM microtubules)
N#C/C(C(=O)c1ccc(Cl)cc1Cl)=C1\NC(=O)c2ccc(Cl)cc2N1 [ciliobrevin D, reference compound]	200	15.5 ± 3	did not reveal a plateau			
N#Cc1c(C2(c3ccc(Cl)cc3)CC2)nn2c1[nH]c(=O)c1cc(I)ccc12 [Compound 8, 2-[1-(4-chlorophenyl)cyclopropyl]-7-iodo-5-oxo-4H-pyrazolo[1,5-a]quinazoline-3-carbonitrile]	20	1.9 ± 0.6	~ 0.5 s^−1	~ 8 fold	6.2 ± 1.6	~ 0.5 s^−1
